Reference: BindingDB's records for patent US20240158369 (Wigen Biomedicine Technology (Shanghai), 2024)

Target: Wee1-like protein kinase (Homo sapiens, UniProt P30291)
Assay: In-Vitro Assay
Procedure: The inhibitory effect of the compounds on the enzyme activity of recombinant protein Wee-1 was determined by HTRF. The procedures are as follows: After DMSO or serially diluted compounds (up to 200 nM, 1:5 diluted) and recombinant proteins were co-incubated in a kinase buffer at 37° C. for 30 min before Fluorescein-PolyGAT and ATP were added, and the reaction was initiated by addition of a substrate. After incubation at room temperature for 90 min, an antibody and a detection solution were added, and after further incubation at room temperature for 60 min, fluorescence values were detected (excitation wavelength: 340 nm, emission wavelengths: 495 and 520 nm). The 520 nm/495 nm fluorescence intensity ratio value was calculated, and compared with that of the DMSO group, and then the inhibition percentages and IC50 values of the compounds were calculated.

Chain of Wee1-like protein kinase (P30291 whole entry): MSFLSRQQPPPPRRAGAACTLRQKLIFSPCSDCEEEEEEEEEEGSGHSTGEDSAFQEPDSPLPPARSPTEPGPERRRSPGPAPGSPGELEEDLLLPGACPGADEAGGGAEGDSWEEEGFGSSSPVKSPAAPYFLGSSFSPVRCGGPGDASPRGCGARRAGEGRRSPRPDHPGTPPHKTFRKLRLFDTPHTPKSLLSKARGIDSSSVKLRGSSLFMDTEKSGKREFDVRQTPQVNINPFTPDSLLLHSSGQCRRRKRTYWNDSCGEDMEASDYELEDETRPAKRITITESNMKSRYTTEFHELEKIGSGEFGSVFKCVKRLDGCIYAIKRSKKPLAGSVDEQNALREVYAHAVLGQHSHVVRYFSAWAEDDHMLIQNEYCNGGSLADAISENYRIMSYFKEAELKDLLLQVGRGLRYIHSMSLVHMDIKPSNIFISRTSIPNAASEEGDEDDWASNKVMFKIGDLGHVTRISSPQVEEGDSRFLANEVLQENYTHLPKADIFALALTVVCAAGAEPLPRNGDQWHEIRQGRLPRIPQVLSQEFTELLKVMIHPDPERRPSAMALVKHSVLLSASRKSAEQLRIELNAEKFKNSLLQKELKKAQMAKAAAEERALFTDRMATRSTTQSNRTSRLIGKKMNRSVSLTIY

## CC(C)Cc1cc(Nc2ncc(C#N)c(Nc3cccc(N=S(C)(C)=O)n3)n2)cc2c1CCN(C)C2 [US20240158369, Compound 87]
  IC50: < 10 nM
